Laboratory results from US20050187581A1, “Methods of treating disorders with electric fields” (priority 2000, published 2005).

Key:
ovariectomized rats = conditions: restraint, after 60 min session, n=6
Method: Rats were restricted by wrapping each with a thin polycarbonate sheet and laying it over the lower electrode for 30 min.
To examine the effect of exposure to EF, we used normal and ovariectomized rats. Normal rats were divided into two groups of restraint alone and restraint plus EF.
Ovariectomies were performed 4 weeks before experimentation. EF exposure and restraint treatment applied in this study were as follows: Rats were exposed to 50 Hz, 17,500 V/m EF for a total of 1 hr. Rats were restrained with thin polycarbonate sheeting for the latter half of the EF exposure period. The experimental design in the control groups was the same as in the experimental group except for the absence of EF exposure. […]
Hematological analyses including red and white blood cell count, platelet count, hematocrit and hemoglobin levels were performed using an automatic multi-hemocytometer (Sysmec CC-78, Sysmec inc., Tokyo, Japan). Plasma glucose, lactate and pyruvate levels were measured with an automatic analyzer (7170 Hitachi, Hitachi Co. ltd., Tokyo, Japan). ACTH levels were measured by using an ACTH radio immunoassay kit (ACTH IRMA, MITSUBISHI CHEMICAL Co. Ltd.) and a gamma counter (Auto-Gamma 5530 Gamma Counting System, Packard Instrument Co. ltd.). Plasma corticosterone level was measured using a commercial kit (ImmuChem Double Antibody Corticosterone kit, ICN Biomedicals Inc.). […]

[1] = tested on: BALB 3T3/A31 fibroblast/embryo cells; assay: Membrane potential of BALB 3T3 cells, DiBAC intensity; type: cell-based, murine; conditions: final concentration of 0.4 mM A23187
Method: A23187 is a monocarboxylic acid extracted from Streptomyces chartreusensis that acts as a mobile-carrier calcium ionophore. DiBAC is a fluorescent dye that enters the cell membrane when the membrane's potential changes. Thus, when the membranes of the BALB 3T3 cells depolarize, the DiBAC enters those membranes thereby increasing the intensity of the DiBAC signal (Y-axis) in the BALB 3T3 cells.
The changes in membrane potential were measured with flow cytometry. The methodology for the flow cytometry was as follows. Culture in DMEM was supplemented with 5% FCS 10 mM HEPES. It was then de-touched with 0.02% trypsin and 0.025% EDTA. […] It was then loaded with DiBAC4(3) of a final concentration of 200 nM. It was incubated at 37 degree C. for >5 min. Then the flow cytometry measurements were performed.

murine splenocytes = assay: Cytoplasmic free Ca^2+ in murine splenocytes stimulated with ConA, fluo3 flow cytometry; type: cell-based, mice; conditions: ConA stimulation after 4 min exposure
Method: In order to determine the effect of EF on calcium ion concentration in murine splenocytes, specific EF field exposures of 60 Hz were applied to murine splenocytes. Mice were splenectomized under anesthesia. In a 60 mm dish, the spleen was injected with PBS (phosphate buffered saline including 0.083% NH4Cl). The cells were re-suspended and maintained in Hank's balanced salt solution (HBSS) (SIGMA, MO, USA), during examination for [Ca^2+ ]c, which was carried out within 4 hours after cell preparation. Cells were stored at 4° C. prior to use.
The application of a 60 Hz EF to splenocyte cells created applied current densities of 6, 20, 60, and 200 μA/cm^2. Splenocyte cells were exposed to these conditions for 4 minutes, after which exposure the splenocyte samples were stimulated with Concanavalin A (ConA). Following stimulation of splenocytes with ConA, cytoplasmic free Ca^2+ concentration was determined by fluo3 flow cytometry.

mouse splenocytes = assay: [Ca^2+]c-high cells in lectin-stimulated mouse splenocytes, fluo-3 flow cytometry; type: cell-based, BALB/c mice
Method: In order to avoid contact of the cells and the lower electrode, polycarbonate membrane (Isopore, MILLIPORE, MA USA) was placed between the dish and the insert. Approximately 1 ml of the cell suspension was poured into culture well/space and covered with a lid.
Female BALB/c mice, 4-7 wk old obtained from CLEA Inc. (Tokyo, Japan) maintained in a conventional animal house equipped with clean air-filtering device were splenectomized under anesthesia, and cell suspensions of splenocytes were prepared. To examine cell viability, the cells were cultivated in Dulbecco's modified Eagle's medium (SIGMA, MO, USA) supplemented with 10% fetal bovine serum (FSB). The cells were maintained in Hank's balanced salt solution (HBSS) (SIGMA, MO, USA) during examination for [Ca^2+]c which was carried out within 4 hr after cell preparation. Cells were stored at 4 degree C. prior to use.
Splenocytes (10^6 cells/ml) were incubated for 20 min at 37 degrees C. in HBSS containing 2.5 μM fluo-3-acetoxylmethyl (Molecular Probes, USA) [Vandenberghe et al., 1990]. The cell suspension was then diluted 5 times with HBSS containing 1% FBS, incubated for 40 min at 37 degrees C., washed 3 times with assay buffer, and the cells were then suspended in the assay buffer at a concentration of 1×10^6/ml. Throughout the cell preparation, the cell suspensions were mixed gently.
Considering the reported synergistic interaction between EMF and mitogen (Walleczek and Liburdy, 1990), concanavalin-A (Con-A) (Seikagaku Co., Tokyo, Japan) and phytohemaglutinin (PHA) (SIGMA, MO, USA) were used.
Taking into account the results of the viability test for exposed murine splenocytes earlier assayed, we chose to use the optimum culture and exposure conditions (60 Hz, 6 μA/cm^2 EF) in carrying out the following five experiments: • (1) cells suspended in HEPES-buffered saline (BS)+1 mM CaCl2 were exposed to EF for a total of 40 min, and 12.5 μg/ml of Con-A was added after the first 8 min of exposure. The control groups consisted of EF-unexposed cells containing Con-A, and EF-exposed cells without Con-A. Percent [Ca^2+]c-high cells was checked at certain exposure points; • (2) cells in HEPES-BS+1 mM CaCl2 were exposed for a total of 12 min, and different concentrations (1 ng-12.5 μg/ml) of Con-A were added after the first 4 min of exposure. The control group was essentially the same as that of the experimental group but without EF-exposure; • (3) cells in HEPES-BS+1 mM CaCl2 were exposed for a total of 8 min, and 5 μg/ml of PHA was added after the first 4 min of exposure. The control groups consisted of EF-unexposed cells containing PHA, and EF-exposed cells without PHA; • (4) cells suspended in HEPES-BS without CaCl2 were exposed for a total of 12 min, and different concentrations (1 ng-5 μg/mil) of Con-A were added after the first 4 min of exposure. The control group was essentially the same as the experimental group but without EF exposure; and • (5) to evaluate the persistent effect of EF exposure, cells suspended in HEPES-BS+[…] were exposed for a total of 4 min, after which different concentrations (0.025-12.5 μg/ml) of Con-A were added, and the generation of [Ca^2+]c-high cells for the next 8 min without EF exposure was monitored with flow cytometry. The control was essentially the same as the experimental group but without any EF-exposure. Statistical Analysis

## CN1C(=O)CN=C(c2ccccc2)c2cc(Cl)ccc21 [diazepam]
Ovariectomized rats
  WBC counts: 85 ×10^2 cells/μl

## CNc1ccc2oc(C[C@H]3O[C@@]4(CC[C@H]3C)O[C@H]([C@H](C)C(=O)c3ccc[nH]3)[C@H](C)C[C@H]4C)nc2c1C(=O)O [A23187]
[1]
  Membrane potential (DiBAC intensity): alters the membrane potential

## concanavalin-A [Con-A]
Murine splenocytes
  Calcium concentration in the splenocyte cells: increased
Mouse splenocytes; 12.5 μg/ml Con-A
  Time post-Con-A stimulation of decline in [Ca^2+]c-high cells: approximately 4 min
  Time to saturation point of Con-A-induced response after addition of the mitogen: 5 to 8 min
Mouse splenocytes; 12.5 μg/ml Con-A, 1 mM CaCl2, EF-exposed and unexposed cell suspensions
  Number of [Ca^2+]c-high cells: increased significantly
Mouse splenocytes; 3.125-12.5 μg/ml Con-A, unexposed or earlier exposed to EF for 4 min
  [Ca^2+]c-high cells compared to cells stimulated with 0.025 μg/ml of Con-A: significant increase
Mouse splenocytes; 3.125 and 6.25 μg/ml Con-A
  Time post-Con-A stimulation at which sustained increase in [Ca^2+]c-high cells leveled off: about 8 min
Mouse splenocytes; Ca^2+-free cell condition, control and EF-exposed groups
  Con-A-dependent [Ca^2+]c rise: negligible
